# Entries after “also recorded” stand apart in the source; their conditions may differ. Like-named read-outs stand apart in the source and are kept apart here.
# Tests used:
# Mucor miehei = experiment: Plate agar diffusion test, minimal inhibitory concentration against Mucor miehei; format: cell-based; details: Rhizomucor miehei
# Description: Die antibakterielle Wirkung kommt sowohl gegen gram-positive wie gram-negative Bakterien zur Geltung, wie z.B. im Platten-Agardiffusionstest in vitro [10 µl/Testrondelle (6 mm ø)] gezeigt werden kann, wo sie bei verschiedenen pathogenen Keimen eine minimale Hemmkonzentration im Bereiche von 1-200 µg/ml zeigen. Von den gegenüber den neuen Verbindungen empfindlichen gram-positiven Bakterien seien z.B. die folgenden genannt: Bacillus cereus, Bacillus subtilis, Clostridium pasteurianum, Corynebacterium rathayi, von den gram-negativen folgende: Agrobacterium tumefaciens, Erwinia amylovorum, Escherichia coli K 12 wild type, Klebsiella aerogenes, Serratia marcescens 13880, Serratia marcescens 30122.
# Die antifungische Wirkung tritt praktisch gegenüber den meisten Pilzen auf. So weist das Antibiotikum Tü 1718 und insbesondere die Verbindungen der Formel (IV) im oben genannten Agardiffusionstest eine minimale Hemmkonzentration im Bereiche von ca. 0,1-200 µg/ml gegenüber sehr vielen pathogenen und nicht pathogenen Pilzen, z.B. gegen Pythium debarianum, Mucor hiemalis+, Mucor hiemalis-, Mucor miehei, Trichophyton mentagrophytes, Botrytis cinerea 157, Aspergillus fumigatus, und mehrere andere. So besitzen z.B. die nachstehend aufgeführten spezifischen Verbindungen die folgenden minimalen Hemmkonzentrationen gegenüber Mucor miehei: • Komponente A1 von Antibiotikum Tü 1718, d.h. (2S,5S)-2-(2-Hydroxyäthyl)-clavam = 10 ug/ml
# (§1) Bei der […] kann der Plattendiffusionstest dienen, wobei vorzugsweise folgende Testkeime verwendet werden: Clostridium pasteurianum, Escherichia coli und Mucor miehei. Die minimale Hemmkonzentration der Hauptkomponente des Antibiotikums in µg/m1 gegenüber den eben genannten Mikroorganismen ist wie folgt: • Clostridium pasteurianum 50
# Clostridium pasteurianum = experiment: Plate diffusion test, minimal inhibitory concentration against Clostridium pasteurianum; format: cell-based; details: Plattendiffusionstest, read-out: minimale Hemmkonzentration
# From the text: as §1
# [1] = test system: Tumorzellen der Zellinie NS-1; experiment: Tumour-inhibiting effect on tumour cells of cell line NS-1; format: cell-based, Maus; details: Zellinie NS-1, compared with Actinomycin C
# From the text: Das neue Antibiotikum, seine Extrakte und die neuen Verbindungen der Formel (IV) besitzen zudem auch eine tumorhemmende Wirkung, wie in Versuchen an Tumorzellen der Zellinie NS-1, einer Variante der Zelline P 3, die aus Mineralöl-induzierten Plastocytomen der Maus stammen, gezeigt werden kann.
# [2] = Solubility in solvents and water; format: physicochemical
# From the text: (§2) Als Aufbewahrungsmittel eignet sich Chloroform. […] Es ist somit möglich, die Verbindungen in Form all jener pharmazeutischen Präparate zu verwenden, die Wasser enthalten, wie insbesondere von wässrigen Lösungen bei der parenteralen oder oralen Applikation, oder Cremen oder Salben oder Tinkturen bei der topischen Gabe.
# (§3) Als Aufbewahrungsmittel eignet sich Chloroform. […] Bei der Dünnschichtchromatographie z.B. an Kieselgel-Alufolien kann die Substanz z.B. durch folgende Sprühreagenzien sichtbar gemacht werden: Ehrlich's Reagenz, rot; Vanillin/ ^H2S04, lindgrün; Ninhydrin, gelb mit violettem Rand.
# [3] = Stability solvent-free and in aqueous solution; format: physicochemical
# From the text: as §2, §3
# [4] = Agardiffusionstest, read-out: minimale Hemmkonzentration gegenüber Mucor miehei
smiles,measurement,setting,value
"O=C(COc1ccccc1)OCC[C@H]1CN2C(=O)C[C@@H]2O1 [(2S,5S)-2-(2-Phenoxyacetoxyäthyl)-clavam]",MIC,Mucor miehei; [4],0.1 mg/L
"O=C1C[C@@H]2O[C@@H](CCO)CN12 [Komponente A1 von Antibiotikum Tü 1718, (2S,5S)-2-(2-Hydroxyäthyl)-clavam]",MIC,Mucor miehei; [4],10 mg/L
same,MIC,"Mucor miehei; Plattendiffusionstest, Mucor miehei, read-out: minimale Hemmkonzentration",10 to 20 mg/L
same,MIC,Clostridium pasteurianum,50 mg/L
same,tumorhemmende Wirkung,[1],ca. die Hälfte der tumorhemmenden Wirkung von Actinomycin C
same,"Löslichkeit in Chloroform, Aceton, Methanol","[2]; Chloroform, Aceton, Methanol",sehr gut; also recorded: gut löslich
same,Löslichkeit in Wasser,[2]; Wasser,weniger gut löslich; also recorded: mässig löslich
same,Stabilität in lösungsmittelfreiem Zustand,[3]; lösungsmittelfrei,beschränkt stabil
same,Stabilität in wässerigen Lösungen,"[3]; wässerige Lösungen, pH 5-7",einigermassen gute Stabilität

# Reference: patent publication EP0057664A2, “Clavam derivatives” (CIBA-GEIGY AG, priority 1981, dated 1982)
